In patent US20250327770A1, “Protein-Derived Peptide Multiplexes for Biomimetic Detection of VOC Profiles” (University of Washington, priority 2022, published 2025):
“Also recorded” adds a separate entry of the source.

Assays:
[1] = QCM VOC binding, nonanal; conditions: wet N2 gas stream
Method: (§1) VOC binding validation by QCM utilized chimeric molecular constructs tethered to a substrate in a VOC-doped gas stream. Gold QCM substrates (Qsense, Phoenix, AZ, USA) were coated with 10 nm thick carbon film by evaporation (SPI, West Chester, PA, USA). 10 μL of 1 μM aqueous peptide was deposited and incubated for 1 hour at room temperature, and then the sample was dried in a nitrogen gas stream. A KSV model Z500 QCM (Qsense, Phoenix, AZ, USA) was used to measure VOC binding to bare carbon (control), and peptide-coated substrates. Humidified nitrogen was measured as the baseline, then VOC was introduced by bubbling nitrogen through the VOC/deionized water mixture. The difference in resonant frequency between wet nitrogen and VOC mixture was reported, in which lower frequency indicated an increase in mass on the substrate due to VOC molecules binding to the surface.
(§2) Each of the six synthesized peptides was then tested against eight VOCs. The VOCs were chosen to include the targeted VOCs for all synthesized chimeric molecular constructs, plus ethanol as a common non-target. […] VOC adsorption caused damping of the QCM sensor—therefore, a higher affinity surface would produce a greater reduction in resonant frequency upon exposure to the gas stream. The concentration of the target VOC for each peptide was 20 μM, 10× lower than non-targets at 200 μM.

[2] = SPR adsorption of peptide onto carbon substrate; format: binding
Method: (§3) SPR (GE Healthcare, Biacore T200) was performed to validate specific adsorption of peptides onto a carbon substrate. Bare gold and carbon- and poly-L-lysine-functionalized substrates were used. Substrate fabrication used e-beam evaporation (CHA Industries, Solution Process Development System) of titanium (3-nm thick layer) then gold (47-nm thick layer) onto 1-cm^2 optical quality glass. A 20-nm thick carbon layer was sputtered (Kurt J. Lesker Company, Lab 18 Sputter System) onto the fabricated gold substrates at a rate of 10 Å per minute, and poly-L-lysine coatings were drop-cast incubated with 0.1% v/v poly-L-lysine for 30 minutes and rinsed with di-H2O, then air dried. A single-cycle kinetics curve was generated by sequential injection of MmedPep1-GBP peptide at 2-fold increasing concentrations up to 500 nM in buffer (100 mM KCl, 10 mM K+ phosphate). An injection flow rate of 30 μL/min and a temperature of 25° C. were used. Response values were plotted and fitted to a Langmuir isotherm curve by minimizing the sum of square differences between the dataset and the isotherm model.

[3] = SPR adsorption of peptide onto poly-L-lysine substrate; format: binding; conditions: 500 nM peptide concentration
Method: as §3

[4] = Peptide-sensitized CNT-FET sensor response to ethyl butyrate; conditions: gate voltage −1 V
Method: Sensors were placed in a box chamber that allowed gas flow into and out of the enclosure while allowing micromanipulator probes to be positioned on the sensor chip contact pads. Gas flow impinged directly above the sensor chip with a continuous flow rate of 50-60 SCCM as controlled by a flowmeter (Matheson, model FM-1050, Montgomeryville, PA, USA).
After placing the sensor chip into the gas chamber, a nitrogen purge of 2-3 minutes at 4 to 5 PSI in the gas line was performed in order to flush out ambient air trapped within the box enclosure. Transfer curve measurements were performed to determine sensor characteristics. The chip was then equilibrated in humidified N2 (“wet N2”) for 30-60 min by flowing in nitrogen gas that has passed through a gas bubbler filled with water. Sensor measurements were taken at this point to establish sensor baseline signal.
For peptide sensitization of the CNT sensing channel, the chip was removed from the gas chamber and dropcasted with 1.5 μL 100 μM peptide diluted in di-H2O. Peptide solution was pipetted directly onto the CNT sensing regions of the multiplexed chip and incubated for 60 minutes in a humidified environment to prevent evaporation. Devices were then spin dried by centrifugal force at 2,000 g. Sensor measurements were taken again after replacing the chip back into the gas chamber, purging with N2, and equilibrating in wet N2 for 30-60 min. Finally, the peptide-functionalized chip was exposed to humidified ethyl butyrate for 60-90 min before sensor measurements were taken.
Transfer curves were generated for each of the following experimental conditions: 1) Bare CNT sensors (i.e., non-functionalized) under non-humidified N2 gas exposure; 2) non-functionalized sensors under humidified N2 gas exposure; 3) peptide-functionalized sensors under humidified N2 gas exposure; and 4) peptide-functionalized sensors exposed to ethyl butyrate in humidified N2 carrier gas. Signal response was based on normalized source-drain current values obtained from the reverse sweep of the transfer curve at a gate potential of −1 V (Vg=−1 V), which was determined to be within the subthreshold voltage region for ethyl butyrate-exposed, peptide-functionalized sensors. […] Signal responses were normalized to their corresponding width-to-length CNT sensing channel dimensions. Mean signal response for each condition was calculated from a total of 9 to 13 technical replicates measured across two independent experiments (N=2).
Two VOC and C-binding peptides were used in order to functionalize CNT-FET devices and test their sensitivity to ethyl butyrate:MmedPep1-GrBP and BhorPep1-GrBP, which were predicted to bind to ethyl butyrate and a range of aldehydes and alkanes, respectively. […] However, the effect was reversed under ethyl butyrate exposure for CNT channels functionalized with MmedPep1-GrBP (FIG. 7B). Specifically, upon exposure to 378 mM ethyl butyrate solution (5% v/v in H2O), MmedPep1-GrBP-sensitized CNT-FET sensors measured 1.21±0.43 μA of current, compared to 0.20±0.9 μA for the aldehyde-sensitive BhorPep1-GrBP (p<0.001), as shown in FIG. 7C.

[5] = SPR adsorption of peptide onto bare gold; format: binding; conditions: 500 nM peptide concentration
Method: as §3

[6] = QCM VOC binding, octanal; conditions: wet N2 gas stream
Method: as §1, §2

[7] = QCM VOC binding, ethyl butyrate; conditions: wet N2 gas stream
Method: as §1, §2

[8] = QCM VOC binding, ethanol; conditions: wet N2 gas stream
Method: as §1, §2

[9] = 378 mM ethyl butyrate solution (5% v/v in H2O), Vsd=−5 V

In the case of “SHFVGGGYSSY [HcunPep1-GrBP, chimeric construct from HcunPBP3; target nonanal]”, the “nonanal affinity (QCM)” value [1] was “notable”.

With “VGARNGGGYSSY [MmedPep1-GrBP, target ethyl butyrate]” the SPR signal ([2]; 500 nM peptide concentration, carbon-coated gold surface) was 158.4±44.1 RU, the “substrate preference of adsorption (carbon vs gold, poly-L-lysine)” value ([2]; SPR) was “specific preference for the carbon substrate; also recorded: specific absorption” and the SPR signal [3] was 6.5±2.9 RU. The “source-drain current upon ethyl butyrate exposure” value [4, 9] was 1.21±0.43 μA, the “source-drain current upon ethyl butyrate exposure” value ([4]; Vds=−3 V) was 0.542±0.721 μA and the “CNT-FET signal response to ethyl butyrate exposure (in words)” value [4] was “robust signal response”. It also gave an SPR signal [5] of 18.4±1.7 RU.

With “GIVLLATYEKIISIYFIFFGGGYSSY [BhorPep1-GrBP, chimeric construct from BhorOBPm2; targets aldehydes and alkanes]” the “octanal affinity (QCM)” value [6] was “notable”, the “source-drain current upon ethyl butyrate exposure” value [4, 9] was 0.20±0.9 μA and the “source-drain current upon ethyl butyrate exposure” value ([4]; Vds=−3 V) was 0.038±0.020 μA. For the same sequence, the “CNT-FET signal response to ethyl butyrate exposure (in words)” value [4] was “respond weakly”.

With “VGGGAGRGNGGGYSSY [MmedPep1s-GrBP, glycine spacer variant of MmedPep1-GrBP; target ethyl butyrate]” the “ethyl butyrate binding preference (QCM)” value [7] was “strongly selective” and the “affinity for ethanol (QCM)” value [8] was “reduced affinity”.
